Experiments:
[1] = biological target: T1, Recombinant STAT6 protein (STAT6(W123-T658)) (Homo sapiens, UniProt P42226); experiment: STAT6 Fluorescence Polarization (FP) Assay; type: binding; details: STAT6(W123-T658) 250 nM, probe 5-FAM-ApYKPFQDLI-NH2 2 nM, 45-minute incubation
T1 construct: Recombinant STAT6 protein (STAT6(W123-T658))
T1 sequence (P42226 123-658): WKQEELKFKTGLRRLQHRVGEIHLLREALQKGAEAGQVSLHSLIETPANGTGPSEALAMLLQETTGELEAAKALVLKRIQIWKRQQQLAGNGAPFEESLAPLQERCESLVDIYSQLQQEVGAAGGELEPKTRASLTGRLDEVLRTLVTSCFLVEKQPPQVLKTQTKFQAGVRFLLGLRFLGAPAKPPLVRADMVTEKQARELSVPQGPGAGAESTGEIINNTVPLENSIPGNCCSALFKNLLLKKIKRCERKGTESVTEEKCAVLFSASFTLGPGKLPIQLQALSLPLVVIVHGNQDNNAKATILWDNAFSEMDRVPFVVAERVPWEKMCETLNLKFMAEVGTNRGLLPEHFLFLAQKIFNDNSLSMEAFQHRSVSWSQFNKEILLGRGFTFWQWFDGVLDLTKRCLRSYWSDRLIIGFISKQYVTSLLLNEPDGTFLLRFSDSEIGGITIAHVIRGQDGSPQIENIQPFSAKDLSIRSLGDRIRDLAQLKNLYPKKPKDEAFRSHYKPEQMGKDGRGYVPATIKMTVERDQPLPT
How it was run: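 Displacement of a fluorescent phosphotyrosine peptide (5-FAM-ApYKPFQDLI-NH2, 2 nM) from STAT6(W123-T658) (250 nM), 1% DMSO, pH 7.4 HEPES buffer. After 45 min at room temperature, polarization (mP) was plotted versus log compound concentration and fitted by nonlinear regression to give IC50.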

[2] = biological target: T2, Recombinant STAT3 protein (STAT3(G127-I722)) (Homo sapiens, UniProt P40763); experiment: STAT3 Fluorescence Polarization (FP) Assay; type: binding; details: STAT3(G127-I722) 25 nM, probe 5-FAM-GpYLPQTV-NH2 2 nM, 45-minute incubation
T2 construct: Recombinant STAT3 protein (STAT3(G127-I722))
T2 sequence (P40763 127-722): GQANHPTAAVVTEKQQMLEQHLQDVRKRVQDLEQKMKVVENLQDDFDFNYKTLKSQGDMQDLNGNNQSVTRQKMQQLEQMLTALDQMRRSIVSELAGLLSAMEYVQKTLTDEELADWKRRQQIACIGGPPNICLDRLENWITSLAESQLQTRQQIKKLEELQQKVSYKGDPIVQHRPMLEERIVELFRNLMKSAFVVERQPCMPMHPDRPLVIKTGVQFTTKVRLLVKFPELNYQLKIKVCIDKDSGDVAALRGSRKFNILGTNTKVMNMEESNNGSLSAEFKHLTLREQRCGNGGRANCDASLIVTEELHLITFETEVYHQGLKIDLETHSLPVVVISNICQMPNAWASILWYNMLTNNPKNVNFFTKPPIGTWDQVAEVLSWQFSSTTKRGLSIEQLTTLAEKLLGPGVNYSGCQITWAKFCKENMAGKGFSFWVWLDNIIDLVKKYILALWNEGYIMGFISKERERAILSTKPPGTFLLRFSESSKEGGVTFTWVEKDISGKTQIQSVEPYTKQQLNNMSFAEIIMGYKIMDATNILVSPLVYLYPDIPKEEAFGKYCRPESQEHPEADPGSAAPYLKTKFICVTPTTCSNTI
How it was run: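 Fluorescence polarization after a 45-min room-temperature incubation measured compound displacement of a 2 nM fluorescein-labelled phosphotyrosine peptide (5-FAM-GpYLPQTV-NH2) from 25 nM recombinant STAT3(G127-I722). Buffer was 10 mM HEPES pH 7.4 with 1% DMSO final. IC50s were fitted by nonlinear regression of mP against log concentration.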

Row | SMILES | IC50 [1] [µM] | IC50 [2] [nM]
1 | CC(=O)N1CC[C@H]2CC[C@@H](C(=O)Nc3ccc(-c4ccccc4)cc3)N2C(=O)[C@@H](NC(=O)c2cc3cc(C(F)(F)P(=O)(O)O)ccc3[nH]2)C1 [Compound 58, ((2-(((5S,8S,10aR)-8-([1,1′-biphenyl]-4-ylcarbamoyl)-3-acetyl-6-oxodecahydropyrrolo[1,2-a][1,5]diazocin-5-yl)carbamoyl)-1H-indol-5-yl)difluoromethyl)phosphonic acid] | 0.3 to 3 | 100 to 1000
2 | CC(=O)N1CC[C@H]2CC[C@@H](C(=O)N3CC(C#N)C4(C3)C(=O)Nc3ccccc34)N2C(=O)[C@@H](NC(=O)c2cc3cc(C(F)(F)P(=O)(O)O)ccc3s2)C1 (stereo partly drawn) [Compound 61, ((2-(((5S,8S,10aR)-3-acetyl-8-(4′-cyano-2-oxospiro[indoline-3,3′-pyrrolidine]-1′-carbonyl)-6-oxodecahydropyrrolo[1,2-a][1,5]diazocin-5-yl)carbamoyl)benzo[b]thiophen-5-yl)difluoromethyl)phosphonic acid] | 0.3 to 3 | 100 to 1000
3 | CC(=O)N1CC[C@H]2CC[C@@H](C(=O)N3CCN(Cc4ccccc4)C(C#N)C3)N2C(=O)[C@@H](NC(=O)c2cc3cc(C(F)(F)P(=O)(O)O)ccc3s2)C1 (stereo partly drawn) [Compound 62, ((2-(((5S,8S,10aR)-3-acetyl-8-(4-benzyl-3-cyanopiperazine-1-carbonyl)-6-oxodecahydropyrrolo[1,2-a][1,5]diazocin-5-yl)carbamoyl)benzo[b]thiophen-5-yl)difluoromethyl)phosphonic acid] | 0.3 to 3 | 1000 to 10000
4 | CC(=O)N1CC[C@H]2CC[C@@H](C(=O)N3CCN(C4CC4)C(C#N)C3)N2C(=O)[C@@H](NC(=O)c2cc3cc(C(F)(F)P(=O)(O)O)ccc3s2)C1 (stereo partly drawn) [Compound 63, ((2-(((5S,8S,10aR)-3-acetyl-8-(3-cyano-4-cyclopropylpiperazine-1-carbonyl)-6-oxodecahydropyrrolo[1,2-a][1,5]diazocin-5-yl)carbamoyl)benzo[b]thiophen-5-yl)difluoromethyl)phosphonic acid] | 0.3 to 3 | 1000 to 10000
5 | CC(=O)N1CC[C@H]2CC[C@@H](C(=O)N3CC(C#N)C4(CCC4)C3)N2C(=O)[C@@H](NC(=O)c2cc3cc(C(F)(F)P(=O)(O)O)ccc3s2)C1 (stereo partly drawn) [Compound 64, ((2-(((5S,8S,10aR)-3-acetyl-8-(8-cyano-6-azaspiro[3.4]octane-6-carbonyl)-6-oxodecahydropyrrolo[1,2-a][1,5]diazocin-5-yl)carbamoyl)benzo[b]thiophen-5-yl)difluoromethyl)phosphonic acid] | 0.3 to 3 | 1000 to 10000
6 | CC(=O)N1CC[C@H]2CC[C@@H](C(=O)Nc3cc(C)c4[nH]ncc4c3)N2C(=O)[C@@H](NC(=O)c2cc3cc(C(F)(F)P(=O)(O)O)ccc3s2)C1 [Compound 67, ((2-(((5S,8S,10aR)-3-acetyl-8-((7-methyl-1H-indazol-5-yl)carbamoyl)-6-oxodecahydropyrrolo[1,2-a][1,5]diazocin-5-yl)carbamoyl)benzo[b]thiophen-5-yl)difluoromethyl)phosphonic acid] | 0.3 to 3 | 1000 to 10000
7 | CC(=O)N1CC[C@H]2CC[C@@H](C(=O)Nc3ccc4onc(C)c4c3)N2C(=O)[C@@H](NC(=O)c2cc3cc(C(F)(F)P(=O)(O)O)ccc3s2)C1 [Compound 68, ((2-(((5S,8S,10aR)-3-acetyl-8-((3-methylbenzo[d]isoxazol-5-yl)carbamoyl)-6-oxodecahydropyrrolo[1,2-a][1,5]diazocin-5-yl)carbamoyl)benzo[b]thiophen-5-yl)difluoromethyl)phosphonic acid] | 0.3 to 3 | 100 to 1000
8 | CC(=O)N1CC[C@H]2CC[C@@H](C(=O)Nc3ccc4nccnc4c3)N2C(=O)[C@@H](NC(=O)c2cc3cc(C(F)(F)P(=O)(O)O)ccc3s2)C1 [Compound 69, ((2-(((5S,8S,10aR)-3-aceytl-6-oxo-8-(quinoxalin-6-ylcarbamoyl)decahydropyrrolo[1,2-a][1,5]diazocin-5-yl)carbamoyl)benzo[b]thiophen-5-yl)difluoromethyl)phosphonic acid] | 0.3 to 3 | 1000 to 10000
9 | CC(=O)N1CC[C@H]2CC[C@@H](C(=O)Nc3ccc(S(C)(=O)=O)cc3)N2C(=O)[C@@H](NC(=O)c2cc3cc(C(F)(F)P(=O)(O)O)ccc3s2)C1 [Compound 70, ((2-(((5S,8S,10aR)-3-acetyl-8-((4-(methylsulfonyl)phenyl)carbamoyl)-6-oxodecahydropyrrolo[1,2-a][1,5]diazocin-5-yl)carbamoyl)benzo[b]thiophen-5-yl)difluoromethyl)phosphonic acid] | 0.3 to 3 | 1000 to 10000
10 | CC(=O)N1CC[C@H]2CC[C@@H](C(=O)Nc3ccc(=O)n(C)c3)N2C(=O)[C@@H](NC(=O)c2cc3cc(C(F)(F)P(=O)(O)O)ccc3s2)C1 [Compound 71, ((2-(((5S,8S,10aR)-3-acetyl-8-((1-methyl-6-oxo-1,6-dihydropyridin-3-yl)carbamoyl)-6-oxodecahydropyrrolo[1,2-a][1,5]diazocin-5-yl)carbamoyl)benzo[b]thiophen-5-yl)difluoromethyl)phosphonic acid] | 0.3 to 3 | 1000 to 10000
11 | CC(=O)N1CC[C@H]2CC[C@@H](C(=O)Nc3ccc4nccn4c3)N2C(=O)[C@@H](NC(=O)c2cc3cc(C(F)(F)P(=O)(O)O)ccc3s2)C1 [Compound 72, ((2-(((5S,8S,10aR)-3-acetyl-8-(imidazo[1,2-a]pyridin-6-ylcarbamoyl)-6-oxodecahydropyrrolo[1,2-a][1,5]diazocin-5-yl)carbamoyl)benzo[b]thiophen-5-yl)difluoromethyl)phosphonic acid] | 0.3 to 3 | 1000 to 10000

Second part, the compound after the results:

Row | IC50 [1] [µM] | IC50 [2] [nM] | SMILES
12 | 3 to 30 | 1000 to 10000 | CC(=O)N1CC[C@H]2CC[C@@H](C(=O)Nc3ccc(OCCCN(C)C)cc3)N2C(=O)[C@@H](NC(=O)c2cc3cc(C(F)(F)P(=O)(O)O)ccc3s2)C1 [Compound 73, ((2-(((5S,8S,10aR)-3-acetyl-8-((4-(3-(dimethylamino)propoxy)phenyl)carbamoyl)-6-oxodecahydropyrrolo[1,2-a][1,5]diazocin-5-yl)carbamoyl)benzo[b]thiophen-5-yl)difluoromethyl)phosphonic acid]
13 | 3 to 30 | 1000 to 10000 | CC(=O)N1CC[C@H]2CC[C@@H](C(=O)Nc3ccc(OCCN(C)C)cc3)N2C(=O)[C@@H](NC(=O)c2cc3cc(C(F)(F)P(=O)(O)O)ccc3s2)C1 [Compound 75, ((2-(((5S,8S,10aR)-3-acetyl-8-((4-(2-(dimethylamino)ethoxy)phenyl)carbamoyl)-6-oxodecahydropyrrolo[1,2-a][1,5]diazocin-5-yl)carbamoyl)benzo[b]thiophen-5-yl)difluoromethyl)phosphonic acid]
14 | 0.3 to 3 | 100 to 1000 | CC(=O)N1CC[C@H]2CC[C@@H](C(=O)N3CCC4(C3)C(=O)Nc3ccccc34)N2C(=O)[C@@H](NC(=O)c2cc3cc(C(F)(F)P(=O)(O)O)ccc3s2)C1 (stereo partly drawn) [Compound 76, ((2-(((5S,8S,10aR)-3-acetyl-6-oxo-8-(2-oxospiro[indoline-3,3′-pyrrolidine]-1′-carbonyl)decahydropyrrolo[1,2-a][1,5]diazocin-5-yl)carbamoyl)benzo[b]thiophen-5-yl)difluoromethyl)phosphonic acid]
15 | 3 to 30 | 100 to 1000 | CC(=O)N1CC[C@H]2CC[C@@H](C(=O)N3CC(C(=O)N4CCOCC4)C3)N2C(=O)[C@@H](NC(=O)c2cc3cc(C(F)(F)P(=O)(O)O)ccc3s2)C1 [Compound 77, ((2-(((5S,8S,10aR)-3-acetyl-8-(3-(morpholine-4-carbonyl)azetidine-1-carbonyl)-6-oxodecahydropyrrolo[1,2-a][1,5]diazocin-5-yl)carbamoyl)benzo[b]thiophen-5-yl)difluoromethyl)phosphonic acid]
16 | 0.3 to 3 | 100 to 1000 | CC(=O)N1CC[C@H]2CC[C@@H](C(=O)N3CCC(N4CCCS4(=O)=O)C3)N2C(=O)[C@@H](NC(=O)c2cc3cc(C(F)(F)P(=O)(O)O)ccc3s2)C1 (stereo partly drawn) [Compound 78, ((2-(((5S,8S,10aR)-3-acetyl-8-(3-(1,1-dioxidoisothiazolidin-2-yl)pyrrolidine-1-carbonyl)-6-oxodecahydropyrrolo[1,2-a][1,5]diazocin-5-yl)carbamoyl)benzo[b]thiophen-5-yl)difluoromethyl)phosphonic acid]
